One assay deals with H3K4me3 mark. Briefly: Histone lysine demethylase immunofluorescence assay, non-transfected U2OS cells. The class given is cell-based. To be noted: Homo sapiens, staining of the H3K4me3 mark, 20 hours incubation with compound. The procedure: U2OS cells were harvested and seeded into multi well plates into media containing compound. The media used was DMEM containing 5% FBS and pen/strep. 20 hours after incubation of cells with compounds, the cells were washed once in PBS, harvested by fixation with formaldehyde 4% aqueous solution, and washed in PBS. Subsequently, the cells were permeabilized in PBS with 0.2% Triton X-100. Blocking was performed in PBS with 0.2% Triton X-100 and 5% FBS. The cells were incubated with αH3K4me3 primary antibody (Cell Signaling, #9751S) in blocking solution over night at 4° C. After incubation with primary antibody, the cells were washed with PBS, incubated with secondary antibody (Alexa fluor 594 goat anti rabbit IgG, Invitrogen, A11012) and Hoechst, (Sigma, 33342) in blocking solution, and washed again with PBS. Finally, PBS was added and high throughput imaging and analysis were performed by an IN Cell Analyzer 1000 (GE Healthcare). The IC50 values were based on an average measure of the staining of the H3K4me3 mark in cells.

For another assay, the target named is T1, KDM2B (FBXL10) (Homo sapiens, UniProt Q8NHM5).
T1 sequence (Q8NHM5 1-650): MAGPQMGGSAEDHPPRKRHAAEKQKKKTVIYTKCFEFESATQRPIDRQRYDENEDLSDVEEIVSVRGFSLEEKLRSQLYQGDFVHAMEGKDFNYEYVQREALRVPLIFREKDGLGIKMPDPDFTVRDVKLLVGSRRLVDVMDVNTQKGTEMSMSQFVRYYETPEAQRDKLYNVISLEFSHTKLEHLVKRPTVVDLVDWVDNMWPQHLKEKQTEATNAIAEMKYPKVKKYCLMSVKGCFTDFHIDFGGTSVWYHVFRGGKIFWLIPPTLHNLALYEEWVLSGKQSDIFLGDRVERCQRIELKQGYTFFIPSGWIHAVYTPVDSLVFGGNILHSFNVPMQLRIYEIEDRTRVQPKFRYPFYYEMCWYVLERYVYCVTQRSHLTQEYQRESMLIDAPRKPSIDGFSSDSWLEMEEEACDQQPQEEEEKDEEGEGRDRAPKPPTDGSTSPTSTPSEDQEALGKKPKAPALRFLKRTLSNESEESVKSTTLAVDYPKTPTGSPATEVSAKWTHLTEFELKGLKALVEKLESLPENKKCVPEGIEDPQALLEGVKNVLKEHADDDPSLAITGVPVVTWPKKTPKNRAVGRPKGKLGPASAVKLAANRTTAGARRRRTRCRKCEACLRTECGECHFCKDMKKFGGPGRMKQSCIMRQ
As to the kind of experiment: Histone lysine demethylase AlphaLISA assay, KDM2B. The class given is biochemical. To be noted: read-out: KDM2B HDME Inhibition IC50. Here is the method:
(§1) Assays are performed analogously to the protocol described by PerkinElmer (Roy et al. PerkinElmer Technical Note: AlphaLISA #12, April 2011)
(§2) Enzymes are dissolved in enzyme buffer and incubated for 10 min before being added to 3% DMSO solutions of compounds in enzyme buffer. Incubated for another 10 minutes, before substrate solution is added and the reaction mixture is incubated at room temperature. 10 μL acceptor beads, suspended in Epigenetic Buffer (Perkin Elmer AL008) from stock, are added and the suspension is incubated in the dark at room temperature, before a suspension of streptavidin donor beads (Perkin Elmer 6760002) in Epigenetic Buffer is added. After incubation at room temperature in the dark the plates are read. […]
BH3K36M2: RKAAPATGGVK(Me2)KPHRYRPGTVK-(BIOTIN)? (Anaspec)
(§3) Substrate Solution: Substrate, 25 μM L-Asc, and 10 μM α-KG in Buffer A.
(In general: In Alpha technology, singlet oxygen from a donor bead excites a nearby acceptor bead.)

For a further assay, the system named is MCF7 cells. Briefly: Cell proliferation assay MCF7. Conditions: MCF7 human breast cancer cells; 120 hours; ATPlite 1 Step. The class given is cell-based. The procedure:
MCF7 cells were seeded in multi well plates at a density optimized to give approximately 90% confluent cells at the time of harvest. Cells were incubated for 24 hours before addition of compound. Compounds were diluted in complete medium and added to the plates in duplicates. The final concentration of DMSO was maximum 0.5%. Complete medium used was DMEM with GlutaMAX containing 10% FBS and pen/strep.
120 hours after addition of compounds, the plates were harvested and analyzed by ATPlite 1 Step (Perkin Elmer, cat no 6016739) according to the manufactures recommendation.
For orientation: In ATP-based viability assays light output follows the ATP content of the culture.

In another assay the target is T2, KDM7 (PHF8) (Homo sapiens, UniProt Q9UPP1).
T2 construct: KDM7 (PHF8); BRIC; 1-1322; Bac
T2 sequence (Q9UPP1 37-440 limits assumed): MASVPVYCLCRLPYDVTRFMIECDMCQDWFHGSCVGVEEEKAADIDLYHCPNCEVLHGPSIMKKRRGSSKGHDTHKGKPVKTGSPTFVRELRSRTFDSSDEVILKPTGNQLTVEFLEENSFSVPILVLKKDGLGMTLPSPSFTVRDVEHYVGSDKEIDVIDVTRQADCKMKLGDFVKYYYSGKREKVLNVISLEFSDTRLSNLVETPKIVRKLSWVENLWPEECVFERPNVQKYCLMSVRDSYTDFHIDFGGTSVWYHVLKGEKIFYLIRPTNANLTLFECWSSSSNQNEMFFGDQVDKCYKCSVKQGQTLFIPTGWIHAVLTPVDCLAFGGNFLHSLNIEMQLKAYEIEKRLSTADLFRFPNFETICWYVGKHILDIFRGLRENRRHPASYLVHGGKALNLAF
As to the kind of experiment: Histone lysine demethylase AlphaLISA assay, KDM7. To be noted: read-out: PHF8 HDME Inhibition IC50. The assay is classed as biochemical. Here is the method:
as §1, §2
BK9M2: Biotin-ARTKQTAR(KMe2)STGGKAPRKQ-NH2 (AnaSpec 64359)
BK9M1: Biotin-ARTKQTAR(KMe1)STGGKAPRKQ-NH2 (AnaSpec 64358) […]
as §3

A further assay addresses T3, KDM4C (JMJD2C) (Homo sapiens, UniProt Q9H3R0).
T3 sequence (Q9H3R0 1-349): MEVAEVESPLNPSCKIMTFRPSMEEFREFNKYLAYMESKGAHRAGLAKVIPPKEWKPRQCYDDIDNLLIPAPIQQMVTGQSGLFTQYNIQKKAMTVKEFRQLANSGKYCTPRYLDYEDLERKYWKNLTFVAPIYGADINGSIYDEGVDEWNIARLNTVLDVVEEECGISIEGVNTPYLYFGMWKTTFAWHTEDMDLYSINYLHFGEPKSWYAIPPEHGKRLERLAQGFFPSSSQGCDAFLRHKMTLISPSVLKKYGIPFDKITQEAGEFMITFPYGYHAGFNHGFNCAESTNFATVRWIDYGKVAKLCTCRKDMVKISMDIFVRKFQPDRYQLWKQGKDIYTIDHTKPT
Briefly: Histone lysine demethylase AlphaLISA assay, KDM4C. The assay is classed as biochemical. To be noted: read-out: KDM4C HDME Inhibition IC50. The procedure: as §1
Enzymes are dissolved in enzyme buffer and incubated for 10 min before being added to 3% DMSO solutions of compounds in enzyme buffer. Incubated for another 10 minutes, before substrate solution is added and the reaction mixture is incubated at room temperature. 10 μL acceptor beads, suspended in Epigenetic Buffer (Perkin Elmer AL008) from stock, are added and the suspension is incubated in the dark at room temperature, before a suspension of streptavidin donor beads (Perkin Elmer 6760002) in Epigenetic Buffer is added. After incubation at room temperature in the dark the plates are read.
BK9M3: Biotin-ARTKQTAR(KMe3)STGGKAPRKQ-NH2 (Caslo, Denmark) […]
as §3

The target in a further assay is KDM6A (UTX) (Homo sapiens, UniProt O15550). Briefly: Histone lysine demethylase AlphaLISA assay, KDM6A. Conditions: read-out: KDM6A HDME Inhibition IC50. The class given is biochemical. The procedure:
as §1, §2
BK27M3: Biotin-ATKAAR(Kme3)SAPATGGVKKPHRY-NH2? (Caslo, Denmark) […]
as §3

A further assay deals with T4, KDM5B (PLU-1) (Homo sapiens, UniProt Q9UGL1).
T4 sequence (Q9UGL1 1-809): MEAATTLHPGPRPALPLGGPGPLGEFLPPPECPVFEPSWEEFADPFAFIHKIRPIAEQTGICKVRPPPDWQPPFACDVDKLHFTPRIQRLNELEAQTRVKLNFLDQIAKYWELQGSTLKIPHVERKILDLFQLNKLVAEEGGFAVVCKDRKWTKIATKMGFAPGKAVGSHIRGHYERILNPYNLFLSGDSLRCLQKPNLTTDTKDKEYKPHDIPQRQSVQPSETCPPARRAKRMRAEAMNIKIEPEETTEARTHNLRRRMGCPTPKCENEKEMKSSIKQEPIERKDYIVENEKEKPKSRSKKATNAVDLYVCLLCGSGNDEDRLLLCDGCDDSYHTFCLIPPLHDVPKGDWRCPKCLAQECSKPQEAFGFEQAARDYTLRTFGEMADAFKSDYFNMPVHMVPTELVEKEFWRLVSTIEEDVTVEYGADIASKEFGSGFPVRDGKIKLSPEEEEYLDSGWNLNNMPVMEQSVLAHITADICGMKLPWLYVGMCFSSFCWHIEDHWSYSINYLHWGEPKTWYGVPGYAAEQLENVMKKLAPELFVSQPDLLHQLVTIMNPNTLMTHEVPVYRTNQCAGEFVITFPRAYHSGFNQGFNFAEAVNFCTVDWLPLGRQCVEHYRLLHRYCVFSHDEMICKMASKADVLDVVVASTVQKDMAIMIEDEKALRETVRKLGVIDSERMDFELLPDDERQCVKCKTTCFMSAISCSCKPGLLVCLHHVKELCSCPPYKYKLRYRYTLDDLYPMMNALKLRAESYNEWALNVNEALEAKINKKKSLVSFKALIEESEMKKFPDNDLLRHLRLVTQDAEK
Briefly: Histone lysine demethylase AlphaLISA assay, KDM5B. Conditions: read-out: KDM5B HDME Inhibition IC50. The assay is classed as biochemical. The procedure: as §1, §2
H3K4M3B: H-ART(Kme3)QTARKSTGGKAPRKQLA-NH-Biotin (Caslo, Denmark) […]
as §3

KDM6A (UTX), sequence (O15550 919-1401): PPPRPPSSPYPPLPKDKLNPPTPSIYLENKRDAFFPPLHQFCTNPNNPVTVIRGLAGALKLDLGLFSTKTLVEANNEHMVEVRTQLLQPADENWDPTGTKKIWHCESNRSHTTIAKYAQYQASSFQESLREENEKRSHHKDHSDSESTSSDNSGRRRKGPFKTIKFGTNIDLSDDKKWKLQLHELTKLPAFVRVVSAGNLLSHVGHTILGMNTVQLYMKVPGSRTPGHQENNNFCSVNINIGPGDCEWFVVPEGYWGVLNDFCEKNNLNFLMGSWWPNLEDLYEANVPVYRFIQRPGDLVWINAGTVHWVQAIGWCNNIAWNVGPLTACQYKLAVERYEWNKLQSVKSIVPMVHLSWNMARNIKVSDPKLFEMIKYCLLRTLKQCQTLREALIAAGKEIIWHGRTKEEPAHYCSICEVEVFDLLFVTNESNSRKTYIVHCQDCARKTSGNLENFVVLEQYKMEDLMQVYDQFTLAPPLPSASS

`CCN(CC)CCCCNCc1cc(CNC(=O)C(=O)O)ccn1` [Compound 27, ({[2-({[4-(diethylamino)-butyl]amino}methyl)pyridin-4-yl]methyl}carbamoyl)-formic acid]: the IC50 in the assay with H3K4me3 mark was under 0.25 µM; at KDM2B (FBXL10), over 2.5 µM; at KDM7 (PHF8), over 2.5 µM; at KDM4C (JMJD2C), over 2.5 µM; at KDM6A (UTX) it was over 2.5 µM; on KDM5B (PLU-1) it was under 0.25 µM. The compound also had an EC50 with MCF7 cells of 0.25 to 2.5 µM.
For `CCN(CCN1CCC1)C(=O)CNCc1cc(CNC(=O)C(F)(F)F)ccn1` [Compound 30, N-[(2-{[({[2-(azetidin-1-yl)ethyl](ethyl)-carbamoyl}-methyl)amino]methyl}-pyridin-4-yl)methyl]-2,2,2-trifluoroacetamide], the IC50 in the assay with H3K4me3 mark is under 0.25 µM; at KDM2B (FBXL10) it was over 2.5 µM; on KDM4C (JMJD2C) it was over 2.5 µM; on KDM6A (UTX), over 2.5 µM; at KDM5B (PLU-1), 0.25 to 2.5 µM. Besides, in the assay on MCF7 cells, the EC50 was under 0.25 µM.
As for `CCN(CCN(C)C)C(=O)CNCc1cc(CNC(=O)C(F)(F)CC)ccn1` [Compound 32, N-[(2-{[({[2-(dimethylamino)-ethyl](ethyl)-carbamoyl}methyl)-amino]methyl}pyridin-4-yl)methyl]-2,2-difluorobutanamide], the IC50 in the assay on H3K4me3 mark is over 2.5 µM; at KDM2B (FBXL10), over 2.5 µM; at KDM4C (JMJD2C) it was over 2.5 µM; at KDM6A (UTX) it was over 2.5 µM; on KDM5B (PLU-1), under 0.25 µM. In the assay with MCF7 cells, this compound displayed an EC50 of over 2.5 µM.
`CCN(CCCN(C)C)C(=O)CNCc1cc(/C=N/CCO)ccn1` [Compound 82, N-[3-(dimethylamino)propyl]-N-ethyl-2-[({4-[[(2-hydroxyethyl)imino]-methyl]pyridin-2-yl}methyl)amino]-acetamide]: the IC50 in the assay on H3K4me3 mark was under 0.25 µM; on KDM2B (FBXL10), over 2.5 µM; on KDM4C (JMJD2C), over 2.5 µM; on KDM6A (UTX), over 2.5 µM; on KDM5B (PLU-1) it was over 2.5 µM. In the assay on MCF7 cells, this compound yielded an EC50 of under 0.25 µM.
For `CCN(CC(C)N(C)C)C(=O)CNCc1cc(/C=N/CCO)ccn1` (stereo not shown) [Compound 83, N-[2-(dimethylamino)-propyl]-N-ethyl-2-[({4-[[(2-hydroxyethyl)imino]-methyl]pyridin-2-yl}methyl)amino]-acetamide], the IC50 was under 0.25 µM in the assay with H3K4me3 mark, over 2.5 µM at KDM2B (FBXL10), 0.25 to 2.5 µM on KDM4C (JMJD2C) and under 0.25 µM on KDM5B (PLU-1). For the same compound, the EC50 with MCF7 cells was under 0.25 µM.
In the case of `CCN(C[C@@H]1CCC[C@@H]1N(C)C)C(=O)CNCc1cc(/C=N/CCO)ccn1` [Compound 85, N-{[(1S,2S)-2-(dimethylamino)-cyclopentyl]methyl}-N-ethyl-2-[({4-[[(2-hydroxyethyl)imino]-methyl]pyridin-2-yl}methyl)amino] acetamide-], the IC50 with H3K4me3 mark was under 0.25 µM; at KDM2B (FBXL10), over 2.5 µM; at KDM4C (JMJD2C) it was under 0.25 µM; on KDM6A (UTX), over 2.5 µM; on KDM5B (PLU-1) it was under 0.25 µM. Besides, the 50% effective concentration (EC50) in the assay with MCF7 cells lay in the range of 0.25 to 2.5 µM.
Consider `CCN(CCN(C)C)C(=O)CNCc1cc(/C=N/CC2(CO)CC2)ccn1` [Compound 88, N-[2-(dimethylamino)-ethyl]-N-ethyl-2-[({4-[({[1-(hydroxymethyl)cyclopropyl]methyl}imino)methyl]pyridin-2-yl}methyl)amino] acetamide], for which the IC50 in the assay with H3K4me3 mark is under 0.25 µM; at KDM2B (FBXL10), over 2.5 µM; on KDM7 (PHF8), over 2.5 µM; on KDM4C (JMJD2C), 0.25 to 2.5 µM; on KDM6A (UTX) it was over 2.5 µM; on KDM5B (PLU-1) it was under 0.25 µM. In the assay with MCF7 cells, this compound yielded an EC50 of under 0.25 µM.

Usually IC50 stands for the concentration at which inhibition is half-maximal. One may read the EC50 as the concentration giving half of the maximal effect. A lower EC50 goes with greater potency.

(Values after patent US9650339B2, “Inhibitors of histone demethylases” (Gilead Sciences, Inc., priority 2013, dated 2017).)
